Experiment [1] concerns the target T1, Far upstream element-binding protein 1 (Homo sapiens, UniProt Q96AE4).
T1 sequence (Q96AE4 whole entry): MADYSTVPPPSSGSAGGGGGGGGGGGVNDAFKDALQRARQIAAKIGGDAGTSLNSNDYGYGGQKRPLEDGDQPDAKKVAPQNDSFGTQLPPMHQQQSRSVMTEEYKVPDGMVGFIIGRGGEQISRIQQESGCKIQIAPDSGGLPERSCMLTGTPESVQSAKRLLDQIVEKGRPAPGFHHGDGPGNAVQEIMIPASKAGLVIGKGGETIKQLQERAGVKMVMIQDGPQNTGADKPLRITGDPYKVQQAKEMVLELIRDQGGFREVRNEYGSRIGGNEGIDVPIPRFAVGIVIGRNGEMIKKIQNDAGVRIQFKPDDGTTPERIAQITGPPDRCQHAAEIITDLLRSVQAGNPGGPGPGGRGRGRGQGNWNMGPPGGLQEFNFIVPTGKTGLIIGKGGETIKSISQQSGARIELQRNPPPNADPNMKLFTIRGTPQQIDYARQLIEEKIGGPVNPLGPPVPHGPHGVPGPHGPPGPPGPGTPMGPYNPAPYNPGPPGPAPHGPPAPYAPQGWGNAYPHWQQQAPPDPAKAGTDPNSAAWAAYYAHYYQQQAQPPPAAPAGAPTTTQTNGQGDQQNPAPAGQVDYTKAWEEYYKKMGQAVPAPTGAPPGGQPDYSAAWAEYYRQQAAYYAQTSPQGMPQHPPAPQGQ
The experiment is described as follows: Inhibition of 6xHis-tagged human FUBP1 expressed in HEK293T cells assessed as reduction in FUBP1 interaction with biotinylated NLC chip immobilized FUSE p21 oligonucleotide incubated for 21 hrs by SPR analysis. The conditions noted are these: for IC50: hek293t; for pIC50: read-out: IC50.

Experiment [2] concerns Hep 3B2. The experiment is described as follows: Cell cycle arrest in human Hep3B cells assessed as accumulation at sub-G1 phase at 20 uM measured after 24 hrs by propidium iodide and RNase A staining based Nicoletti assay (reference value: 2.5 %). In kind it is functional.
Experiment [3] relates to Huh-7. The experiment is described as follows: Decrease in cell expansion in human Huh-7 cells at 10 to 20 uM measured after 24 hrs by Neubauer chamber method. Format: functional, cell-based. Particulars: dose 10-20 µM.
The subject of experiment [4] is Hep 3B2. The experiment is described as follows: Cell cycle arrest in human Hep3B cells assessed as accumulation at sub-G1 phase at 10 uM measured after 24 hrs by propidium iodide and RNase A staining based Nicoletti assay (reference value: 2.5 %). In kind it is functional.
Experiment [5] has as its system Hep 3B2. The experiment is described as follows: Decrease in cell expansion in human Hep3B cells at 10 to 20 uM measured after 48 to 72 hrs by Neubauer chamber method. In kind it is functional, cell-based. The conditions noted are these: dose 10-20 µM, time 48-72 hrs.
The subject of experiment [6] is HepG2. The experiment is described as follows: Induction of cell death in human HepG2 cells assessed as increase in number of dead cells at 10 to 20 uM measured after 72 hrs. Format: functional, cell-based. Particulars: dose 10-20 µM.
The test system of experiment [7] is HepG2. The experiment is described as follows: Decrease in cell expansion in human HepG2 cells at 10 to 20 uM measured after 48 to 72 hrs by Neubauer chamber method. In kind it is functional, cell-based. Particulars: dose 10-20 µM, time 48-72 hrs.
Experiment [8] has as its system Hep 3B2. The experiment is described as follows: Induction of cell death in human Hep3B cells assessed as increase in number of dead cells at 10 to 20 uM measured after 24 hrs. The conditions noted are these: dose 10-20 µM. Format: functional, cell-based.

Experimental findings from ChEMBL document CHEMBL4715785, “Pyrazolo[1,5a]pyrimidines as a new class of FUSE binding protein 1 (FUBP1) inhibitors” (Bioorg Med Chem, 2016) are described below.

Structures are written as SMILES. pIC50: −log10 of the molar value. Calls of active or inactive are those of the source. The rule behind the calls is not given here. Some results are limits rather than exact numbers.

With `FC(F)(F)c1cc(-c2ccc3c(c2)CCC3)nc2cc(-c3ccco3)nn12`, the IC50 entry in experiment [1] is on record as “Not Active”.

On to `COc1ccc(-c2cc(C(F)(F)F)n3nc(-c4ccc(Cl)cc4)cc3n2)cc1OC`, for which, in experiment [1], the IC50 result was “Not Active”.

With `FC(F)(F)c1cc(-c2cccnc2)nc2cc(-c3cccs3)nn12`, the negative-log IC50 (pIC50) in experiment [1] was less than 4.00.

`COc1ccc(-c2cc(C(F)(F)F)n3nc(-c4cccs4)cc3n2)cc1`: the pIC50 in experiment [1] was less than 4.00.

On to `COc1ccc(-c2cc(C(F)(F)F)n3nc(-c4ccco4)cc3n2)cc1`, for which the IC50 result in experiment [1] is on record as “Not Active”.

For `FC(F)(F)c1cc(-c2cccs2)nc2cc(-c3ccco3)nn12`, in experiment [1], the IC50 result was “Not Active”.

As to `FC(F)(F)c1cc(-c2ccc(Cl)cc2)nc2cc(C3CC3)nn12`, the IC50 result in experiment [1] is reported as “Not Active”.

With `FC(F)(F)c1cc(-c2ccncc2)nc2cc(-c3ccco3)nn12`, the IC50 result in experiment [1] was “Not Active”.

As to `FC(F)(F)c1cc(-c2ccc3ccccc3c2)nc2cc(-c3ccco3)nn12`, in experiment [1], the IC50 result is on record as “Not Active”.

Turning to `COc1ccc(-c2cc(C(F)(F)F)n3nc(-c4cccs4)cc3n2)cc1OC`, the Activity was found to be 16.1% in experiment [2] and 7.7% in experiment [4]. For the same compound, the result in experiment [3], in experiment [5], in experiment [7] and in experiment [8] was Active. Moreover, in experiment [6], the result was inactive.

In the case of `FC(F)(F)c1cc(-c2cccc(Cl)c2)nc2cc(-c3cccs3)nn12`, the IC50 entry in experiment [1] is “Not Active”.

On to `FC(F)(F)c1cc(-c2ccc(Cl)cc2)nc2cc(-c3ccco3)nn12`, for which the IC50 entry in experiment [1] is recorded as “Not Active”.

For the compound `Fc1ccc(-c2cc(C(F)(F)F)n3nc(-c4cccs4)cc3n2)cc1`, the IC50 entry in experiment [1] is “Not Active”.

`FC(F)(F)c1cc(-c2nccs2)nc2cc(-c3cccs3)nn12`: the IC50 entry in experiment [1] is listed as “Not Active”.

Take `O=[N+]([O-])c1cccc(-c2cc(C(F)(F)F)n3nc(-c4ccco4)cc3n2)c1`: in experiment [1], the IC50 entry is listed as “Not Active”.

As for `FC(F)(F)c1cc(-c2ccncc2)nc2cc(-c3cccs3)nn12`, in experiment [1], the pIC50 is less than 4.00.

`FC(F)(F)c1cc(-c2ccccc2)nc2cc(-c3cccs3)nn12`: the pIC50 in experiment [1] is less than 4.00.

Consider `COc1ccc(-c2cc(C(F)(F)F)n3nc(C(C)(C)C)cc3n2)cc1OC`, for which the IC50 entry in experiment [1] is “Not Active”.

With `COc1ccc(-c2cc(C(F)(F)F)n3nc(-c4ccccc4)cc3n2)cc1OC`, the IC50 result in experiment [1] is “Not Active”.

Regarding `FC(F)(F)c1cc(-c2ccc(Cl)cc2)nc2cc(-c3cccs3)nn12`, in experiment [1], the pIC50 was less than 4.00.

In the case of `COc1ccc(-c2cc(C(F)(F)F)n3nc(C4CC4)cc3n2)cc1OC`, the pIC50 in experiment [1] was 3.99.

`Cc1cc(C(F)(F)F)n2nc(-c3cccs3)cc2n1`: in experiment [1], the IC50 result is “Not Active”.

In the case of `FC(F)(F)c1cc(-c2ccco2)nc2cc(-c3ccco3)nn12`, the IC50 result in experiment [1] is “Not Active”.

As to `FC(F)(F)c1cc(-c2cccs2)nc2cc(-c3cccs3)nn12`, in experiment [1], the pIC50 is less than 4.00.

For `FC(F)(F)c1cc(-c2ccc3c(c2)OCO3)nc2cc(-c3ccco3)nn12`, the IC50 result in experiment [1] is “Not Active”.

As to `FC(F)(F)c1cc(-c2ccccn2)nc2cc(C3CC3)nn12`, in experiment [1], the IC50 result is “Not Active”.

As to `Cc1cc2nc(-c3ccncc3)cc(C(F)(F)F)n2n1`, the IC50 result in experiment [1] was “Not Active”.

As a reminder, the pIC50 is the IC50 on a negative log10 scale, so that one unit is a factor of ten.
